From patent US11331290B2, “Niclosamide for the treatment of cancer metastasis” (Max-Delbrück-Centrum für Molekulare Medizin in der …, priority 2011, dated 2022)

Columns and labels:
HCT116-CMVp-LUC cells = assay: HCT116-CMVp-LUC intrasplenic xenograft: liver metastasis, tumor growth, overall survival; type: in vivo, mice; details: for median survival: control 24 days
Description: All experiments were performed in accordance with the UKCCCR guidelines and approved by the responsible local authorities (State Office of Health and Social Affairs, Berlin, Germany). HCT116-CMVp-LUC cells (3×10^6 cells per mouse, resuspended in 50 μL PBS) were intrasplenically transplanted into 6-week-old female nonobese diabetic-severe combined immunodeficiency (NOD-SCID) mice. Mice were randomly assigned to 3 groups and reatment of mice started 24 hours after cell transplantation. Mice of the control group (n=9) were treated with daily doses of solvent. Mice of the second group (n=9) were daily treated intraperitoneally with 20 mg per kg niclosamide. Mice of the third group (n=9) were treated intraperitoneally with two doses of 15 mg per kg niclosamide per day. The experimental endpoint was reached when mice appeared moribund and/or the spleen tumor was palpable. This was the case with the majority of control mice on day 24. For long-term in vivo experiments mice randomly assigned to 3 groups. Mice of the control group (n=6) were treated intraperitoneally with daily doses of solvent. Mice of the second group (n=6) were daily treated intraperitoneally with 20 mg per kg niclosamide. Mice of the third group (n=6) were daily treated intraperitoneally for 24 days with 20 mg per kg niclosamide and for the residual days with solvent. Mice were killed by cervical dislocation when tumor reached the maximum in accordance with the local authorities.
Spleen (as the transplantation site) and liver (as a metastasis target organ) were removed. The amount of S100A4 mRNA in the tumor was determined by Trizol RNA isolation of tumor cryosections and quantitative real-time RT-PCR. The level of metastasis was evaluated by scoring. For each liver, a score was calculated as the sum of the volumes of the individual metastases. For each metastasis the formula [width2]×length was applied.
For in vivo luminescence imaging mice were anesthetized with 35 mg per kg Hypnomidate (Jassen-Cilag, Neuss, Germany) and received intraperitoneally 150 mg per kg D-luciferin (Biosynth, Staad, Switzerland) dissolved in sterile PBS. Imaging was performed with the NightOWL LB 981 system (Berthold Technologies, Bad Wildbad, Germany) with exposure times of 1 second and 20 seconds. ImageJ version 2.3 was used for color coding of signal intensity (presenting a 256 grayscale) and overlay pictures.
All calculations and statistical analyses were performed with GraphPad Prism version 4.01. Student t test was used for comparison of only two groups. One-way analysis of variance (ANOVA) was applied for comparing the control group with several treated groups followed by Bonferroni post hoc multiple comparisons. In cell cytotoxicity assay the half-maximal effective concentration to which cell viability was reduced to 50% (EC50) values were calculated by sigmoidal dose-response curve fit of x=log(x) transformed data. Kaplan-Meier analysis was used to plot overall survival and differences in curves were analyzed by Logrank test. All tests were two-sided, and P values less than 0.05 were considered to be statistically significant. If not stated otherwise, means are reported with 95% confidence interval.
(A) In vivo luminescence imaging of metastasis under niclosamide treatment. HCT116-CMVp-LUC cells stably expressing firefly luciferase (LUC) were intrasplenically transplanted into mice (per group n=4) followed by daily intraperitoneal treatment with 20 mg per kg niclosamide. For luminescence imaging, mice were anesthetized at the indicated days and received intraperitoneally D-luciferin. Exposure time for lateral and ventral imaging was 20 seconds per picture. In situ imaging and imaging of isolated organs was performed for 1 second per picture exposure time. Signal intensity of grayscale images (256 scale) were color coded (from low to high signal intensity: blue, green, yellow, red, white) and overlayed with bright field picture. […]

[1] = mice chronically fed 200 mg/kg, two years observation time; cited from earlier work

For O=C(Nc1ccc([N+](=O)[O-])cc1Cl)c1cc(Cl)ccc1O [niclosamide, 2′,5-dichloro-4′-nitrosalicylanilide], the “liver metastasis score, mean % of control” value (HCT116-CMVp-LUC cells; 20 mg per kg daily intraperitoneally, 24 days) was 37.9%, the “liver metastasis signal, in vivo luminescence imaging” value (HCT116-CMVp-LUC cells; 20 mg per kg daily intraperitoneally, day 24) was “No or only tiny liver metastasis signals” and the “size of liver metastases” value (HCT116-CMVp-LUC cells; 20 mg per kg i.p., continuously and discontinuously, vs solvent-treated animals) was “clearly reduced”. The spleen tumor growth (HCT116-CMVp-LUC cells; 20 mg per kg i.p., either continuously or discontinuously, vs solvent-treated mice) was “clearly delayed”, the “liver metastasis score, mean % of control” value (HCT116-CMVp-LUC cells; 2×15 mg per kg per day intraperitoneally, 24 days) was 36.1% and the “liver metastasis, mean difference control vs treatment” value (HCT116-CMVp-LUC cells; continuous treatment) was 89.1%. The “median survival ratio control vs treatment” value (HCT116-CMVp-LUC cells; continuous treatment) was 0.56, the “liver metastasis score, mean % of control” value (HCT116-CMVp-LUC cells; continuous treatment (20 mg per kg i.p. daily)) was 10.9% and the median survival (HCT116-CMVp-LUC cells; continuous treatment: 20 mg per kg i.p. daily) was 43 days. For the same compound, the “liver metastasis, mean difference control vs treatment” value (HCT116-CMVp-LUC cells; discontinuous treatment) was 65.1%, the “median survival ratio control vs treatment” value (HCT116-CMVp-LUC cells; discontinuous treatment) was 0.52 and the “liver metastasis score, mean % of control” value (HCT116-CMVp-LUC cells; discontinuous treatment (20 mg per kg i.p. for 24 days, then solvent)) was 34.9%. For the same compound, the median survival (HCT116-CMVp-LUC cells; discontinuous treatment: 20 mg per kg i.p. daily for 24 days, then solvent) was 46.5 days and the adverse effects [1] was “no adverse effects”.
